From ChEMBL document CHEMBL1150851, “Naphthopyranone glycosides from Paepalanthus microphyllus” (J Nat Prod, 2001)
≈ marks a conversion by molar mass, not a printed value. Calls of active or inactive are those of the source. The rule behind the calls is not given here.

Tests used:
[1] = system: Human immunodeficiency virus 1; assay: Antiviral activity against HIV1 MN infected in human C8166 cells assessed as reduction in antigen gp120 production by ELISA; format: functional, organism-based; settings: Human immunodeficiency virus 1, MN
[2] = Cytotoxicity against uninfected human C8166 cells by XTT-formazan method; format: cell-based; settings: read-out: TC50 (the source's name)
[3] = system: Human immunodeficiency virus 1; assay: Antiviral activity against HIV1 3B infected in human C8166 cells assessed as syncytia formation at 5 fold EC50 preincubated for 5 to 6 days before infection measured after 2 days postinfection by XTT-formazan method; format: functional, organism-based
[4] = Selectivity index, ratio of TC50 for uninfected human C8166 cells to EC50 for HIV1 MN infected in human C8166 cells; format: toxicity, cell-based; settings: uninfected C8166 cells and HIV-1 MN-infected C8166 cells, read-out: Selectivity Index

Row | SMILES | EC50 [1] | CC50 [2] | Activity [3] | selectivity ratio [4]
1 | Cc1cn([C@H]2C[C@H](N=[N+]=[N-])[C@@H](CO)O2)c(=O)[nH]c1=O [ZIDOVUDINE] | 0.016 µg/mL (≈ 0.0599 µM) | > 1000 µg/mL |  | 
2 | COc1cc(O[C@@H]2O[C@H](CO[C@@H]3O[C@@H](C)[C@H](O)[C@@H](O)[C@H]3O)[C@@H](O)[C@H](O)[C@H]2O)c2c(O)c3c(=O)oc(C)cc3c(OC)c2c1 | 30 µg/mL (≈ 49.1 µM) | 100 µg/mL (≈ 164 µM) | inactive | 3.3
3 | COc1cc(O[C@@H]2O[C@H](CO[C@@H]3OC[C@H](O)[C@H](O)[C@H]3O)[C@@H](O)[C@H](O)[C@H]2O)c2c(O)c3c(=O)oc(C)cc3c(OC)c2c1 | 18 µg/mL (≈ 30.2 µM) | 160 µg/mL (≈ 268 µM) | inactive | 8.9
4 | COc1cc(O[C@@H]2O[C@H](CO)[C@@H](O)[C@H](O)[C@H]2O)c2c(O)c3c(=O)oc(C)cc3c(OC)c2c1 | 38 µg/mL (≈ 81.8 µM) | 160 µg/mL (≈ 345 µM) | inactive | 4.2
5 | COc1cc(O[C@@H]2O[C@H](CO[C@@H]3O[C@H](CO)[C@@H](O)[C@H](O)[C@H]3O)[C@@H](O)[C@H](O)[C@H]2O)c2c(O)c3c(=O)oc(C)cc3c(OC)c2c1 | 75 µg/mL (≈ 120 µM) | 150 µg/mL (≈ 239 µM) | inactive | 2
